1 compound from DBAASP can be followed below.

Molecules are shown by their SMILES. Values after ≈ are worked out from the molar mass of the structure shown.

Among the test systems are Escherichia coli Ec513; Escherichia coli MC1061; Escherichia coli O157:H7.
Common to all, as to assay: ≥ marks a high value that may be exact or a test limit, other limits are often not marked, values filed in µg/mL are converted to µM
The test system of assay [1] is Bacillus subtilis ATCC 63501.
Assay [2] deals with Enterobacter cloacae Ha088.
In assay [3] the test system is Enterobacter cloacae Ha185.
The test system of assay [4] is Enterococcus faecalis ATCC 29212.
The test system of assay [5] is Escherichia coli ATCC 25922 ΔsbmA.
Assay [6] concerns Klebsiella pneumoniae DSM 681.
The subject of assay [7] is Proteus vulgaris ICB 9095.
The subject of assay [8] is Pseudomonas aeruginosa ATCC 27853.
For assay [9], the system named is Pseudomonas aeruginosa Pa4216.
Assay [10] concerns Salmonella enterica subsp. enterica serovar Enteritidis MH91989.
Assay [11] has as its system Salmonella typhimurium CMCC 50115.
The test system of assay [12] is Shigella flexneri CMCC 51572.
In assay [13] the test system is Stenotrophomonas sp. ICB 7789.

As usually defined, the MIC is the least concentration at which growth counts as inhibited. A lower MIC goes with greater potency.

`CC[C@H](C)[C@H](NC(=O)[C@H](CCCN=C(N)N)NC(=O)[C@H](CCCN=C(N)N)NC(=O)[C@@H]1CCCN1C(=O)[C@@H]1CCCN1C(=O)[C@H](CCCN=C(N)N)NC(=O)[C@@H]1CCCN1C(=O)[C@H](CCCN=C(N)N)NC(=O)[C@@H]1CCCN1C(=O)[C@H](CC(C)C)NC(=O)[C@H](Cc1ccc(O)cc1)NC(=O)[C@@H]1CCCN1C(=O)[C@@H]1CCCN1C(=O)[C@H](CCCCN)NC(=O)[C@H](CC(=O)O)NC(=O)[C@@H](N)C(C)C)C(=O)N[C@@H](Cc1ccc(O)cc1)C(=O)N[C@@H](CC(N)=O)C(=O)N[C@@H](CCCN=C(N)N)C(N)=O` [VDKPPYLPRPRPPRRIYNR]: the MIC in assay [1] was ≥ 512 µM; in assay [2], 0.0523 µM (≈ 0.125 µg/mL); in assay [3] it was 0.209 µM (≈ 0.5 µg/mL); in [4], > 512 µM; in assay [5] it was 16 µM (≈ 38.2 µg/mL); with Escherichia coli Ec513 it was ≥ 53.5 µM. Moreover, the MIC against Escherichia coli MC1061 is 0.126 µM (≈ 0.3 µg/mL); against Escherichia coli O157:H7, 1.31 µM (≈ 3.14 µg/mL); in [6], 1.67 µM (≈ 4 µg/mL); in assay [7], 1.67 µM (≈ 4 µg/mL); in assay [8], 1.67 µM (≈ 4 µg/mL); in assay [9], ≥ 53.5 µM. The minimum inhibitory concentration (MIC) in assay [10] turned out to be 0.251 µM (≈ 0.6 µg/mL); in assay [11], 8 µM (≈ 19.1 µg/mL); in assay [12] it was 8 µM (≈ 19.1 µg/mL); in assay [13] it was 13.4 µM (≈ 32 µg/mL).
